Patent US9994614B2, “N-methyl-D-aspartate receptor modulators and methods of making and using same” (Naurex, Inc., priority 2014, dated 2018)
Non-standard residues stand in square brackets, D forms with d. Residues, ends and D or L forms follow the SMILES beside them. Hyp = O=C(O)[C@@H]1C[C@@H](O)CN1

Assays:
Assay type in all cases: biochemical
NR2B = target: T1, NR2B (Rattus norvegicus, UniProt Q00960); assay: [3H]MK-801 potentiation assay, NR2B
T1 construct: corresponding to 200 μg of rat cortical membrane extract protein in each reaction; from tissue; host or cells: rat telencephalon (frontal cortex and hippocampus), male Sprague-Dawley
T1 sequence (Q00960 27-1482, other chains not shown): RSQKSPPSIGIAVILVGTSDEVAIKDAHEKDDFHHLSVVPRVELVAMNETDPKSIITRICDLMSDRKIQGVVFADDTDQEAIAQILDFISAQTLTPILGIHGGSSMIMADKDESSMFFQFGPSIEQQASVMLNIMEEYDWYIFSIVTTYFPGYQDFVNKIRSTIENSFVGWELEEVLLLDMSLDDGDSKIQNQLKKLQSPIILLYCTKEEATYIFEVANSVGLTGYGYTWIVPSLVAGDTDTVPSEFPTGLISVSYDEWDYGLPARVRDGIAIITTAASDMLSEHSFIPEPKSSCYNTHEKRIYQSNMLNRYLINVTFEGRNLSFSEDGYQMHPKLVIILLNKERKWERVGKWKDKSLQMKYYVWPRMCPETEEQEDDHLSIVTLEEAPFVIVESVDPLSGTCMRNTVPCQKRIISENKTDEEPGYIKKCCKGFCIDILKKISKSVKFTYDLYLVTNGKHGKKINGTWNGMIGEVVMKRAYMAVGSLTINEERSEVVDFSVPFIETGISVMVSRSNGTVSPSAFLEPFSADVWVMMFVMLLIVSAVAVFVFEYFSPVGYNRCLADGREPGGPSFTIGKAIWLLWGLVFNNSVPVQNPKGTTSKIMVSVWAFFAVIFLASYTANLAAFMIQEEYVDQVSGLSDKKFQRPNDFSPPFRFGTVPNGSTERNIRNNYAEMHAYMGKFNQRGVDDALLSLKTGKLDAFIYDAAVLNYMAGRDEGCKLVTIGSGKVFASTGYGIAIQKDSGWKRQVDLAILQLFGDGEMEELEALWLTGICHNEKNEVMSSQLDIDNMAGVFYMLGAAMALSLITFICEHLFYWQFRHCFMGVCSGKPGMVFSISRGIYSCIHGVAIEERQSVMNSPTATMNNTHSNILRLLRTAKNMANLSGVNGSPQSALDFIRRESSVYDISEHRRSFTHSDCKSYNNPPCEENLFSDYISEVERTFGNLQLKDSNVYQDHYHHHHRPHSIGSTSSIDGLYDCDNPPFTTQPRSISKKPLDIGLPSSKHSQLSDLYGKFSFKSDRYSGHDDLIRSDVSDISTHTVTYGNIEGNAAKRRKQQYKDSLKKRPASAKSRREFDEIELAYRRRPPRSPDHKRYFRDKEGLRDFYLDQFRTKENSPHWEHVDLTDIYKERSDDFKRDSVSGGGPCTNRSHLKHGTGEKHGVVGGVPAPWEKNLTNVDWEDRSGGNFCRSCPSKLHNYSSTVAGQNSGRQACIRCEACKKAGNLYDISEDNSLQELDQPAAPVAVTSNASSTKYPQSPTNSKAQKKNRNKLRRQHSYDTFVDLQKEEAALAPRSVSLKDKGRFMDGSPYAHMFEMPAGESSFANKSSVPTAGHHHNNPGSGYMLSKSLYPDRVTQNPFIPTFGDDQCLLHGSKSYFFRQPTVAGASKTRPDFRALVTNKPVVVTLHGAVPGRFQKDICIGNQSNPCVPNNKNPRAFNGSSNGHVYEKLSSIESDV
Experimental: Crude synaptic membranes were prepared using rat telencephalon (frontal cortex and hippocampus tissue) from male Sprague-Dawley rats and extensively washed using procedures modified from the Moskal et al. 2001 Review; The use of antibody engineering to create novel drugs that target N-methyl-D-aspartate receptors, Current Drug Targets, 2(3):331-45. Briefly, tissue that had been stored at −80° C. was homogenized in ice cold 10 mM Tris (pH7.4 at 4° C.) using a Brinkman Polytron and then pelleted by centrifugation at 51,500 g for 20 min. The resulting supernatant was discarded and the membranes were homogenized and washed an additional 3×. […]
Functional glycine site agonist effects were measured using an a [^3H]MK-801 potentiation assay (see Urwyler S, Floersheim P, Roy B L, Koller M. J Med Chem. (2009) 52(16):5093-107). […] Zero levels were determined in the absence of any glycine ligand in the presence of 30 μM dichlorokyneurenic acid. The % maximal [^3H]MK-801 binding was calculated relative to stimulation measured in the presence of 1 mM glycine and 50 μM glutamate. […]
For compounds with relatively low activity (e.g., GLYX-13), the identification and elimination of background glycine levels can have a significant effect on the interpretation of this assay. […] Absolute background percentages are calculated. […]

NR2C [1] = target: T2, NR2C (Rattus norvegicus, UniProt P35439+Q00961); assay: [3H]MK-801 potentiation assay, NR2C; conditions: in presence of 50 μM glutamate; read-out: NR2C Potency logM (converted)
T2 construct: corresponding to 200 μg of rat cortical membrane extract protein in each reaction; from tissue; host or cells: rat telencephalon (frontal cortex and hippocampus), male Sprague-Dawley

NR2C [2] = target: T3, NR2C (Rattus norvegicus, UniProt Q00961); assay: [3H]MK-801 potentiation assay, NR2C; conditions: relative to stimulation by 1 mM glycine and 50 μM glutamate
T3 construct: corresponding to 200 μg of rat cortical membrane extract protein in each reaction; from tissue; host or cells: rat telencephalon (frontal cortex and hippocampus), male Sprague-Dawley

NR2D = target: T4, NR2D (Rattus norvegicus, UniProt Q62645); assay: [3H]MK-801 potentiation assay, NR2D; conditions: for NR2D Activity % max glycine: relative to stimulation by 1 mM glycine and 50 μM glutamate
T4 construct: corresponding to 200 μg of rat cortical membrane extract protein in each reaction; from tissue; host or cells: rat telencephalon (frontal cortex and hippocampus), male Sprague-Dawley
T4 sequence (Q62645 28-1323, other chains not shown): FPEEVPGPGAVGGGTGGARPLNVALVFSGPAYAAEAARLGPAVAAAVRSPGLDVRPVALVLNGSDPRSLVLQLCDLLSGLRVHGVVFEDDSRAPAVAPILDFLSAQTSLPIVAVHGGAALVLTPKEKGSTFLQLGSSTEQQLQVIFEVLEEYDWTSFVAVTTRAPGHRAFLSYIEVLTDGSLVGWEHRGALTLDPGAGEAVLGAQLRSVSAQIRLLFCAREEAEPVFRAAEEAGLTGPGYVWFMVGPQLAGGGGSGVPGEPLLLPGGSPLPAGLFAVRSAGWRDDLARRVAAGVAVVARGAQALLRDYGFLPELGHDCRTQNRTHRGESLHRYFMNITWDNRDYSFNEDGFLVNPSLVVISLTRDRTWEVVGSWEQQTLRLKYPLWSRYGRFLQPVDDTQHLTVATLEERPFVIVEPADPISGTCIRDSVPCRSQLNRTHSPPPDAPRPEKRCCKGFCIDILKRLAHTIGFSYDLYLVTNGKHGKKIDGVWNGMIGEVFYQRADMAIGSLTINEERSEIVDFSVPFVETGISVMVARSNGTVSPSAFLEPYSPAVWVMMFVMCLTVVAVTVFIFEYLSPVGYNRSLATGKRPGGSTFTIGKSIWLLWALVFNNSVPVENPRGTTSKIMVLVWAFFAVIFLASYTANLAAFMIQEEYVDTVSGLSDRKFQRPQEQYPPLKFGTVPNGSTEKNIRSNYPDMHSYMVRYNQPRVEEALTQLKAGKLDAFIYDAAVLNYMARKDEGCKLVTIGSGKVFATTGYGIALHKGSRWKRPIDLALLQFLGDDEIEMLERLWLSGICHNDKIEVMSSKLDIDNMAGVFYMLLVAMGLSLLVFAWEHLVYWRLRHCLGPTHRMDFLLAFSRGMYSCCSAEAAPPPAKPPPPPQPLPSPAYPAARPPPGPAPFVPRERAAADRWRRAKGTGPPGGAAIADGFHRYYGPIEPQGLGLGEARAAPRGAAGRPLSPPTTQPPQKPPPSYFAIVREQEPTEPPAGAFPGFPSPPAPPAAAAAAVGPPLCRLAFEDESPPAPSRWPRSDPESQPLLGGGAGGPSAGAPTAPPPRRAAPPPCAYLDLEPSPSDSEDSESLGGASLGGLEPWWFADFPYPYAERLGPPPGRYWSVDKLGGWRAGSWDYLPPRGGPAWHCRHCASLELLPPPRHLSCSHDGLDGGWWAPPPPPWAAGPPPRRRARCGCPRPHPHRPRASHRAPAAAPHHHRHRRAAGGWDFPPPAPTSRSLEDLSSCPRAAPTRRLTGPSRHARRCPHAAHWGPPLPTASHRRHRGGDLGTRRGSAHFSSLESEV

NR2A = target: T5, NR2A (Rattus norvegicus, UniProt Q00959); assay: [3H]MK-801 potentiation assay, NR2A
T5 construct: corresponding to 200 μg of rat cortical membrane extract protein in each reaction; from tissue; host or cells: rat telencephalon (frontal cortex and hippocampus), male Sprague-Dawley
T5 sequence (Q00959 23-1464, other chains not shown): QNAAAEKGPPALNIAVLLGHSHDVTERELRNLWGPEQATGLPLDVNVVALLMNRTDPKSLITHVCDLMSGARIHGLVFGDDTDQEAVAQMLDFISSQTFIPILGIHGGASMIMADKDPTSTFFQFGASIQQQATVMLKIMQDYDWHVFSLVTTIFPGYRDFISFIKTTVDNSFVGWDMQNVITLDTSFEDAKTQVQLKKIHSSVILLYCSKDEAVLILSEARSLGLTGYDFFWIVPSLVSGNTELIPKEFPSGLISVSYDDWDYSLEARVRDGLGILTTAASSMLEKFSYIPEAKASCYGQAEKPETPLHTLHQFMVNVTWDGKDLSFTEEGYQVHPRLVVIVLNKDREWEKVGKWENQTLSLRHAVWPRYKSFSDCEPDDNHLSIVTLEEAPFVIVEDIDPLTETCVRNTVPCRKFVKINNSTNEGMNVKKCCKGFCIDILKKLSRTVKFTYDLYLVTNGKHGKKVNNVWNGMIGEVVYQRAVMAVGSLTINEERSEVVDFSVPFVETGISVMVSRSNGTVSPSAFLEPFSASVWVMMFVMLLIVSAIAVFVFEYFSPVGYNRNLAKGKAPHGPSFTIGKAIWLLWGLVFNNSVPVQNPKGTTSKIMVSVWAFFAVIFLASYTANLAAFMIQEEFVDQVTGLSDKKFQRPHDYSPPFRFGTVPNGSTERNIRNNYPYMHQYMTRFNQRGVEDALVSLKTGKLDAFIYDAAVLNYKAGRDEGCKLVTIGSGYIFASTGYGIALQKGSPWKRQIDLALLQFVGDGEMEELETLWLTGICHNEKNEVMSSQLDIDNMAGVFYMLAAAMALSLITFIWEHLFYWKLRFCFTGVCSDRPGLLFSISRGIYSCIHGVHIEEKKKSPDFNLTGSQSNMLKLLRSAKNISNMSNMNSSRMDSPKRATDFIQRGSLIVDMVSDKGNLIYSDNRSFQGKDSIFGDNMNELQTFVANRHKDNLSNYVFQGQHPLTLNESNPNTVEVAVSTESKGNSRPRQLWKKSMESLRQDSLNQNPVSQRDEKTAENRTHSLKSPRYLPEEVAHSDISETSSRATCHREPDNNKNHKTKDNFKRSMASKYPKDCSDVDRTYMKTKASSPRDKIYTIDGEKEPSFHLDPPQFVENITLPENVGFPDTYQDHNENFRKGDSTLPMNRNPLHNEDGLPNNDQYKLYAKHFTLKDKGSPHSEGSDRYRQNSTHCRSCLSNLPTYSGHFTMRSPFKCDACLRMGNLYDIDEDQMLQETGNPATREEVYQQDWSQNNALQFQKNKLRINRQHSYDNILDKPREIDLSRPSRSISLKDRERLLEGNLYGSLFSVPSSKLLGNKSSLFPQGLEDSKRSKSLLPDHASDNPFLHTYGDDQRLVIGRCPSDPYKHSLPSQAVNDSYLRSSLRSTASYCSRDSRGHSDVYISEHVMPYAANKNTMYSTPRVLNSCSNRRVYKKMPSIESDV
Experimental: Briefly, tissue that had been stored at −80° C. was homogenized in ice cold 10 mM Tris (pH7.4 at 4° C.) using a Brinkman Polytron and then pelleted by centrifugation at 51,500 g for 20 min. The resulting supernatant was discarded and the membranes were homogenized and washed an additional 3×. Pellets were then resuspended in 5 mM EDTA/15 mM Tris (pH7.4) and incubated for 1 hr at 37° C. The membrane suspensions were then pelleted by centrifugation at 51,500 g for 20 min and stored at −80° C. overnight. The pellets were resuspended in 10 mM Tris HCl (pH7.4 at 4° C.) and homogenized and washed an additional 7 times and frozen at […] until assay.
Briefly, 300 μg of membrane extract protein were preincubated for 15 minutes at 25° C. in the presence of a saturating concentration of glutamate (50 μM) and varying concentrations of GLYX-13. […] Zero levels were determined in the absence of any glycine ligand in the presence of 30 μM dichlorokyneurenic acid. […]
The origin of aberrantly high background glycine, or bioactive plastic leachates that act like glycine, can stemrom either the water itself, the LC/MS grade water filter used, or a result of time-dependent leaching from plasticware (including storage tubes, beakers, pipette tips). […] Absolute background percentages are calculated. […]
Samples must wait at least 3 hours prior to quantitation in the scintillation counter. […]

[3] = relative to stimulation by 1 mM glycine and 50 μM glutamate

Structure (SMILES) | NR2B Potency logM (NR2B; in presence of 50 μM glutamate) | NR2B Activity % max glycine (NR2B; [3]) | EC50 (NR2C [1]) | NR2C Activity % max glycine (NR2C [2]) | EC50 (NR2D; in presence of 50 μM glutamate, read-out: NR2D Potency logM (converted)) | NR2D Activity % max glycine (NR2D) | EC50 (NR2A; in presence of 50 μM glutamate, read-out: NR2A Potency logM (converted)) | NR2A Activity % max glycine (NR2A; [3]) | NR2D Potency logM (NR2D; in presence of 50 μM glutamate)
C[C@@H](O)[C@H](NC(=O)[C@H](Cc1c[nH]c2ccccc12)NC(=O)[C@@H]1C[C@@H](O)CN1)C(N)=O [Compound A-5] (H-[Hyp]-Trp-Thr-NH2) | −13.86 logM | 29.53 % max glycine | 2.09 pM | 38.75 % max glycine | 2.34 pM | 41.34 % max glycine |  |  | 
CC(=O)OC1C[C@@H](C(=O)N[C@@H](Cc2c[nH]c3ccccc23)C(=O)N[C@H](C(N)=O)[C@@H](C)O)N(C(=O)[C@@H](N)[C@@H](C)O)C1 (stereo partly shown) [Compound A-3] |  |  |  |  |  | 35.17 % max glycine | 17.4 pM | 58.25 % max glycine | −13.68 logM
